Experimental data as given in publication PMC6891315, “Synthesis of Novel Farnesoid X Receptor Agonists and Validation of Their Efficacy in Activating Differentiation of Mouse Bone Marrow-Derived Mesenchymal Stem Cells into Osteoblasts” (Molecules, 2019).

Columns and labels:
[1] = system: FXR; details: cited from earlier work
[2] = system: ST-2 MSCs; experiment: Cell toxicity (WST, Cell Counting Kit-8) assay; assay type: cell-based, mouse; details: 12 days; 0–10 μM CDCA, 0–5 μM GW4064, 0–5 μM 3 or 4
Method: The cells were washed twice with PBS, and cell viability was determined using Cell Counting Kit-8 (Dojindo Molecular Technologies, Kumamoto, Japan) according to the protocols provided by the supplier. The cell viability (%) was shown relative to the vehicle-treated cells (0 μM).

[3] = system: FXR, BSEP and SHP gene expression in ST-2 MSCs; experiment: qPCR of FXR and FXR-target genes (BSEP, SHP) during osteoblast differentiation; assay type: cell-based, mouse; details: for mRNA expression level of FXR: with BMP-2 50 ng/mL, 6 and 12 days, 10 μM CDCA, 5 μM GW4064, 5 μM 3 or 4, vs BMP-2-treated cells
Method: (§1) Mouse ST-2 MSCs were obtained from RIKEN BioResource Research Center (Tsukuba, Japan) and cultured in RPMI-1640 medium (Sigma) containing 10% (v/v) fetal calf serum and antibiotics (100 units/mL penicillin and 100 μg/mL streptomycin; Nacalai Tesque) at 37 °C in an atmosphere of 5% CO2. The ST-2 MSCs were allowed to differentiate into osteoblasts for 6 or 12 days in RPMI-1640 medium with BMP-2 (50 ng/mL). The medium was changed every 3 days.
(§2) RNAiso Plus was used to isolate total RNA (Takara-Bio, Kyoto, Japan). Subsequently total RNA (1 μg) was reverse-transcribed to cDNAs using ReverTra Ace reverse transcriptase (Toyobo, Osaka, Japan) and random hexamer (Takara-Bio). Thereafter, the mRNA levels were determined by qPCR analysis using a Power SYBR Green Master Mix (Thermo Fisher Scientific) in an Applied Biosystems 7500 Real Time PCR System (Thermo Fisher Scientific). The relative mRNA expression levels were determined using the 2^−ΔΔCT method and normalized to that of glyceraldehyde-3-phosphate dehydrogenase (GAPDH).

[4] = system: ST-2 MSCs; experiment: ALP staining and ALP activity in BMP-2-induced osteoblast differentiation; assay type: cell-based, mouse; details: for staining and activity of ALP: with BMP-2 50 ng/mL, 6 or 12 days, 10 μM CDCA, 5 μM GW4064, 5 μM 3 or 4, vs BMP-2-treated cells
Method: as §1
The ST-2 MSCs were allowed to differentiate into osteoblasts for 12 days in RPMI-1640 medium with BMP-2 (50 ng/mL) and one of FXR agonists together with or without GS (25 μM). Then, the cells were washed twice with PBS and fixed with 10% (v/v) formaldehyde in PBS at 25 °C for 10 min. The cells were again washed with PBS, and incubated with the staining solution (0.1 mg/mL naphthol AS-MX phosphate and 0.6 mg/mL Fast-blue BB salt in 0.1 M Tris-Cl, pH 8.8) at 25 °C for 30 min. After removing the staining solution, the cells were washed with PBS and visualized under a microscope (CKX-41, Olympus, Tokyo, Japan).
The ALP activity was measured using LabAssay ALP (FUJIFILM Wako Pure Chemical) according to the manufacturer’s protocols. Protein concentrations were measured using a Pierce BCA Protein Assay Kit (Thermo Fisher Scientific).

[5] = system: RUNX2, COL1A1 and OCN gene expression in ST-2 MSCs; experiment: qPCR of osteogenic genes (RUNX2, COL1A1, OCN) during osteoblast differentiation; assay type: cell-based, mouse; details: for expression of RUNX2, COL1A1 and OCN genes: with BMP-2 50 ng/mL, 10 μM CDCA, 5 μM GW4064, 5 μM 3 or 4, vs BMP-2-treated cells
Method: as §1, §2

[6] = system: ALP gene expression in ST-2 MSCs; experiment: qPCR of ALP gene during osteoblast differentiation; assay type: cell-based, mouse; details: for ALP gene expression (mRNA level): with BMP-2 50 ng/mL, 6 or 12 days, 10 μM CDCA, 5 μM GW4064, 5 μM 3 or 4, vs BMP-2-treated cells
Method: as §1, §2

[7] = target: T1, LXRα (Homo sapiens, UniProt Q13133); experiment: LXRα response element-driven luciferase reporter assay in COS-7 cells; details: 1 μM
T1 sequence (Q13133 1-447): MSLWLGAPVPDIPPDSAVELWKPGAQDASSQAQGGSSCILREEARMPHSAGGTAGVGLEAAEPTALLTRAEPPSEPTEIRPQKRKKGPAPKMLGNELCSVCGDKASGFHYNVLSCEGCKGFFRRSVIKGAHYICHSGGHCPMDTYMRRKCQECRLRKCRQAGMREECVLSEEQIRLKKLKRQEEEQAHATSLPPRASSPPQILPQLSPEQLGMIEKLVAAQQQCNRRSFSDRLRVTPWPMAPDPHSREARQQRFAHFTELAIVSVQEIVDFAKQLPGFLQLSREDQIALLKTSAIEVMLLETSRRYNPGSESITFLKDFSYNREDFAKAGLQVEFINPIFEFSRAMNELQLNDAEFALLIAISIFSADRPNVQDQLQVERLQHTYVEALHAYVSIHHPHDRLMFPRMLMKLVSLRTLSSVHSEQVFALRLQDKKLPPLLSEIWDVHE
Method: Luciferase reporter assay was performed as described previously [53]. Briefly, human hepatoma Huh-7 (for FXR, RARα, and RXRα), transformed African green monkey kidney fibroblast COS-7 (for LXRα/β and PPARα/γ/δ), or human embryonic kidney HEK293 (for VDR and TGR5) cells were transfected with each of plasmids for nuclear receptor and nuclear receptor-response element-driven luciferase gene. […] The luciferase activity was measured as described previously [53].

| Compound | cytotoxicity (cell viability, WST assay) [2] | mRNA expression level of FXR [3] | staining and activity of ALP [4] | expression of RUNX2, COL1A1 and OCN genes ([5]; 6 days) | ALP gene expression (mRNA level) [6] | other results |
| --- | --- | --- | --- | --- | --- | --- |
| CC[C@H]1[C@@H](O)[C@@H]2[C@H](CC[C@]3(C)[C@@H]([C@H](C)CCC(=O)O)CC[C@@H]23)[C@@]2(C)CC[C@@H](O)C[C@@H]12 [6-ECDCA, 6α-ethylchenodeoxycholic acid] |  |  |  |  |  | potency relative to CDCA [1]: about 100 fold |
| C[C@H](CCC(=O)O)[C@H]1CC[C@H]2[C@@H]3[C@H](O)C[C@@H]4C[C@H](O)CC[C@]4(C)[C@H]3CC[C@]12C [CDCA, chenodeoxycholic acid] | No cytotoxicity | elevated | elevated | further enhanced | elevated |  |
| CC(C)c1onc(-c2c(Cl)cccc2Cl)c1COc1ccc(-c2nc3ccc(C(=O)O)cc3n2C)cc1 [FXR agonist 1] |  |  |  |  |  | LXRα-response element-driven luciferase activity [7]: increased |
| CC(C)c1onc(-c2c(Cl)cccc2Cl)c1COc1ccc(-c2nc3cc(C(=O)O)ccc3n2C)cc1 [FXR agonist 2] |  |  |  |  |  | LXRα-response element-driven luciferase activity [7]: increased |
| CC(C)c1onc(-c2c(Cl)cccc2Cl)c1COc1ccc(-c2nc3ccc(C(=O)O)cc3n2C)cc1Cl [FXR agonist 3] | No cytotoxicity | elevated | enhanced | elevated | enhance | ability to enhance ALP staining and activity compared with GW4064 ([4]; 6- or 12-days-differentiated ST-2 MSCs, 5 μM): comparable to that of GW4064; increase of RUNX2, COL1A1 and OCN expression compared with GW4064 ([5]; 6 days, 5 μM, with BMP-2): comparable to that of GW4064; ability to enhance ALP gene expression compared with GW4064 ([6]; 5 μM, with BMP-2): comparable to that of GW4064 |
| CC(C)c1onc(-c2c(Cl)cccc2Cl)c1COc1ccc(-c2nc3ccc(C(=O)O)cc3n2C)c(Cl)c1 [FXR agonist 4, 2-[2-Chloro-4-[[3-(2,6-dichlorophenyl)-5-isopropyl-isoxazol-4-yl]methoxy]phenyl]-3-methyl-benzimidazole-5-carboxylic acid] | No cytotoxicity | elevated | enhanced | elevated | enhance |  |
| C/C=C1\C(=O)C[C@H]2[C@@H]3CCC4=CC(=O)CC[C@]4(C)[C@H]3CC[C@]12C [GS, (Z)-guggulsterone] |  |  |  |  |  | effect on FXR agonist-induced BSEP and SHP expression ([3]; co-treatment with 25 μM GS): suppressed; effect on FXR agonist-induced FXR gene expression ([3]; co-treatment with 25 μM GS): repressed; effect on FXR agonist-induced staining and activity of ALP ([4]; co-treatment with 25 μM GS): suppressed; effect on novel FXR agonist-induced expression of osteogenic genes ([5]; co-treatment with 25 μM GS): repressed; effect on FXR agonist-induced ALP gene expression ([6]; co-treatment with 25 μM GS): repressed |
| CC(C)c1onc(-c2c(Cl)cccc2Cl)c1COc1ccc(/C=C/c2cccc(C(=O)O)c2)c(Cl)c1 [GW4064] | No cytotoxicity | elevated | elevated | further enhanced | elevated |  |
